Tests used:
[1] = system: 454 kinases, 35 G protein-coupled receptors, 14 nuclear hormone receptors, and three cytochrome P450 enzymes; assay: Off-target profiling summary; conditions: 35 GPCRs
Method: The compound was further profiled against 454 kinases, […], 14 nuclear hormone receptors, and three cytochrome P450 enzyme targets (supplemental Tables 2–4). The only inhibitory activity that was noted (at 98% at 10 μM) targeted the calcium mobilization antagonist mode of hADRα1A, a member of the G protein-coupled receptor family involved in epinephrine signaling.

hABL1(F317I) = target: T1, hABL1(F317I) (Homo sapiens, UniProt P00519, F317I); assay: KINOMEscan; type: binding
T1 construct: purchased DiscoverX (KINOMEscan platform)
T1 sequence (P00519 whole entry F317I): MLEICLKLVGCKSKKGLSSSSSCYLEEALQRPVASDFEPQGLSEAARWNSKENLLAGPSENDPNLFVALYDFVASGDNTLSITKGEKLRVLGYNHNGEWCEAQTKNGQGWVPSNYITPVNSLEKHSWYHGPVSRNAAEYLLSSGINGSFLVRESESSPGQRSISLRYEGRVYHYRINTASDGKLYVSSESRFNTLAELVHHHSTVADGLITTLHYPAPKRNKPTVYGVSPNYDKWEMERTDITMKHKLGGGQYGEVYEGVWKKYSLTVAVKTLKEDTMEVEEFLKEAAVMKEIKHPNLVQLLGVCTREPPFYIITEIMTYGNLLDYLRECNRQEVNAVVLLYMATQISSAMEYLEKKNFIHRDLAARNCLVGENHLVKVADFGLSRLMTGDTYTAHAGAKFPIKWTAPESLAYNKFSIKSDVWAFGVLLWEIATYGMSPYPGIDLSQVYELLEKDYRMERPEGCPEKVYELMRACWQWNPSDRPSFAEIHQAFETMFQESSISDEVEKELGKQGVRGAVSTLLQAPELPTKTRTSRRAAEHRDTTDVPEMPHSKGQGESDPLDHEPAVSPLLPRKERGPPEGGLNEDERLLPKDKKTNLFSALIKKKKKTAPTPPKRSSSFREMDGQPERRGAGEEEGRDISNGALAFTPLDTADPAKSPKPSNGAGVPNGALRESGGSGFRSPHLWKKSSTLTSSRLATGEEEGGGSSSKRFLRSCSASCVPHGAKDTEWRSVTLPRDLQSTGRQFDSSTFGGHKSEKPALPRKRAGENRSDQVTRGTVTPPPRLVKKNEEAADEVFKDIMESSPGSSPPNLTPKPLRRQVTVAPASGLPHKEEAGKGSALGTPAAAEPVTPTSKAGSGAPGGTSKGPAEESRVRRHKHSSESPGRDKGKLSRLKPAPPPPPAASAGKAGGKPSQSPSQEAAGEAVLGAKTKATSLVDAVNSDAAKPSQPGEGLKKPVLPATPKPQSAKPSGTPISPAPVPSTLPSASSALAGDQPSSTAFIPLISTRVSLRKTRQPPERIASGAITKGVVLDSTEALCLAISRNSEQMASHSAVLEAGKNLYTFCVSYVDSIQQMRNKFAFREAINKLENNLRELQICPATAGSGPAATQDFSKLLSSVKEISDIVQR

hARK5 = target: T2, hARK5 (Homo sapiens, UniProt O60285); assay: KINOMEscan; type: binding
T2 construct: purchased DiscoverX
T2 sequence (O60285 whole entry): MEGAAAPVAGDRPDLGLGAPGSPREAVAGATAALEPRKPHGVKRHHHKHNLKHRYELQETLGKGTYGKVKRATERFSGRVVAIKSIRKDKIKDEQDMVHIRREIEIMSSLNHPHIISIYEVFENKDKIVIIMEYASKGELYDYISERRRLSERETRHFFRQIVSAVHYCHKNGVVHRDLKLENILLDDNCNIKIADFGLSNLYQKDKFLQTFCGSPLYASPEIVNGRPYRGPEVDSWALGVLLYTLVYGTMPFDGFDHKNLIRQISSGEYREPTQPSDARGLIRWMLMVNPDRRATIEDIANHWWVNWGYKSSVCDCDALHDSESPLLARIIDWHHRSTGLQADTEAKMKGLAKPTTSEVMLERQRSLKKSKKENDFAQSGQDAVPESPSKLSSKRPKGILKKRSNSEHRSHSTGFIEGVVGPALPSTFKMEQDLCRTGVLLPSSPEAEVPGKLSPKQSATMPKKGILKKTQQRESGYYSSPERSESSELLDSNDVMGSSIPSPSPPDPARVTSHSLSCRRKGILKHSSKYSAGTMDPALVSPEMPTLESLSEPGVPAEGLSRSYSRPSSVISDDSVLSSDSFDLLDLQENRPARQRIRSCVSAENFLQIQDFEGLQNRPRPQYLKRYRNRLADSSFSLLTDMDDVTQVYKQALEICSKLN

hCLK1 = target: T3, hCLK1 (Homo sapiens, UniProt P49759); assay: KINOMEscan; type: binding
T3 construct: purchased DiscoverX

hCSF1R = target: T4, hCSF1R (Homo sapiens, UniProt P07333); assay: KINOMEscan; type: binding
T4 construct: purchased DiscoverX (KINOMEscan platform)

hDAPK3 = target: T5, hDAPK3 (Homo sapiens, UniProt O43293); assay: KINOMEscan; type: binding
T5 construct: purchased DiscoverX (KINOMEscan platform)

hEPHB2 = target: T6, hEPHB2 (Homo sapiens, UniProt P29323); assay: KINOMEscan; type: binding
T6 construct: purchased DiscoverX

hEPHB3 = target: T7, hEPHB3 (Homo sapiens, UniProt P54753); assay: KINOMEscan; type: binding
T7 construct: purchased DiscoverX

hFES = target: T8, hFES (Homo sapiens, UniProt P07332); assay: KINOMEscan; type: binding
T8 construct: purchased DiscoverX

hHIPK2 = target: T9, hHIPK2 (Homo sapiens, UniProt Q9H2X6); assay: KINOMEscan; type: binding
T9 construct: purchased DiscoverX

hHIPK3 = target: T10, hHIPK3 (Homo sapiens, UniProt Q9H422); assay: KINOMEscan; type: binding
T10 construct: purchased DiscoverX
T10 sequence (Q9H422 whole entry): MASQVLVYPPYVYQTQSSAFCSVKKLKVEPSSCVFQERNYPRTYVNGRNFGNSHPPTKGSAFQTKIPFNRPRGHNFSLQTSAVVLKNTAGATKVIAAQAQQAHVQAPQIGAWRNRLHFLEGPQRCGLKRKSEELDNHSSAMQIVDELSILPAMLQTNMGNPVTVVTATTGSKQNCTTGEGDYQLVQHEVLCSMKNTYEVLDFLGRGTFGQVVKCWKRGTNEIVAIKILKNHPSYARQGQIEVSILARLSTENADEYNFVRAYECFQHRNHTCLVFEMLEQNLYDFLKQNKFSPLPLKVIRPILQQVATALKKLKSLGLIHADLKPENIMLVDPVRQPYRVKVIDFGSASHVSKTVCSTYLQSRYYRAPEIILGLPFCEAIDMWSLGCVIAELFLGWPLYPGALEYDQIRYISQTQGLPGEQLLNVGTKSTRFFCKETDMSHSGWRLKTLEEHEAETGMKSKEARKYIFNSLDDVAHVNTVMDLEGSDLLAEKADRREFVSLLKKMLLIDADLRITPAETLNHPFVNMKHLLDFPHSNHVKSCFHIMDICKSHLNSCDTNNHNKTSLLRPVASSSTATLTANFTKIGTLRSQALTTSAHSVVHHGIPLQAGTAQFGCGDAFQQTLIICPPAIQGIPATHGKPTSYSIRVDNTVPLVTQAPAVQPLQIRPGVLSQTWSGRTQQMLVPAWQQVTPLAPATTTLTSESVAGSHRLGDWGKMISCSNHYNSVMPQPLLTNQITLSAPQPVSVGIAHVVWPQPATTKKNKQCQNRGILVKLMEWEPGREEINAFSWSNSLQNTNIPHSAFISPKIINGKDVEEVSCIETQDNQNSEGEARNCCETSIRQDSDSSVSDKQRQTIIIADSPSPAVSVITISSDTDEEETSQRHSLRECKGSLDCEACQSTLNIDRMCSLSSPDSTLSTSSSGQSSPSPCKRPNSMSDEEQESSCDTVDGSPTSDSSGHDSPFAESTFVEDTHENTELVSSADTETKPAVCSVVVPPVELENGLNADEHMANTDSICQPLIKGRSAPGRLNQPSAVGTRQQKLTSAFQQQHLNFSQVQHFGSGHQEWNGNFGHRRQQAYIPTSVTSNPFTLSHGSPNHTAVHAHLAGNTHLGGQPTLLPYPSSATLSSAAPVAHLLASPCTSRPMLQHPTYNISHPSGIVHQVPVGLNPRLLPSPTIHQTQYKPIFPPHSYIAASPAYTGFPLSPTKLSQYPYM

hIRAK1 = target: T11, hIRAK1 (Homo sapiens, UniProt P51617); assay: KINOMEscan; type: binding
T11 construct: purchased DiscoverX (KINOMEscan panel)

hMARK3 = target: T12, hMARK3 (Homo sapiens, UniProt P27448); assay: KINOMEscan; type: binding
T12 construct: purchased DiscoverX
T12 sequence (P27448 whole entry): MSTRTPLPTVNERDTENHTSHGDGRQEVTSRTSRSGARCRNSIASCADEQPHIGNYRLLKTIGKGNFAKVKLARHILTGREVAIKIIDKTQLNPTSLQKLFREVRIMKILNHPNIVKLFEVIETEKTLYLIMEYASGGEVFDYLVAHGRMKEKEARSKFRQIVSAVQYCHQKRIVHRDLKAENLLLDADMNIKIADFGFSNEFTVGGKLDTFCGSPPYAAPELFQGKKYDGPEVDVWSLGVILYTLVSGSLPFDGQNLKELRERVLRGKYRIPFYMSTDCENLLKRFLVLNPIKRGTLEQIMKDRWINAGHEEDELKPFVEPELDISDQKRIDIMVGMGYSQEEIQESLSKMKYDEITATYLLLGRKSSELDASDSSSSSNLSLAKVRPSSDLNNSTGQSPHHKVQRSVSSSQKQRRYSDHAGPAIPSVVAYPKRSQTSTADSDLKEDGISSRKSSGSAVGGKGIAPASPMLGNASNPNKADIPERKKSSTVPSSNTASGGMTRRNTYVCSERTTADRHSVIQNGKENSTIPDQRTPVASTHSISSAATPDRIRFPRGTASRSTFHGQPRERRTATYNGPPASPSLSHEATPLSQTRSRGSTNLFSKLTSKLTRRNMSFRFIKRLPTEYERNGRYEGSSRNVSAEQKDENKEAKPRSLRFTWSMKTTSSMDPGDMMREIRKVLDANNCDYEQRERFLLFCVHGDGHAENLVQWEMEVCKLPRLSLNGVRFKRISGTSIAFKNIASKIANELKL

hMERTK = target: T13, hMERTK (Homo sapiens, UniProt Q12866); assay: KINOMEscan; type: binding
T13 construct: purchased DiscoverX

hMET(Y1235D) = target: T14, hMET(Y1235D) (Homo sapiens, UniProt P08581, Y1235D); assay: KINOMEscan; type: binding
T14 construct: purchased DiscoverX

hMKK7 = target: T15, hMKK7 (Homo sapiens, UniProt O14733); assay: KINOMEscan; type: binding
T15 construct: purchased DiscoverX

hRAF1 = target: T16, hRAF1 (Homo sapiens, UniProt P04049); assay: KINOMEscan; type: binding
T16 construct: purchased DiscoverX (KINOMEscan platform)
T16 sequence (P04049 whole entry): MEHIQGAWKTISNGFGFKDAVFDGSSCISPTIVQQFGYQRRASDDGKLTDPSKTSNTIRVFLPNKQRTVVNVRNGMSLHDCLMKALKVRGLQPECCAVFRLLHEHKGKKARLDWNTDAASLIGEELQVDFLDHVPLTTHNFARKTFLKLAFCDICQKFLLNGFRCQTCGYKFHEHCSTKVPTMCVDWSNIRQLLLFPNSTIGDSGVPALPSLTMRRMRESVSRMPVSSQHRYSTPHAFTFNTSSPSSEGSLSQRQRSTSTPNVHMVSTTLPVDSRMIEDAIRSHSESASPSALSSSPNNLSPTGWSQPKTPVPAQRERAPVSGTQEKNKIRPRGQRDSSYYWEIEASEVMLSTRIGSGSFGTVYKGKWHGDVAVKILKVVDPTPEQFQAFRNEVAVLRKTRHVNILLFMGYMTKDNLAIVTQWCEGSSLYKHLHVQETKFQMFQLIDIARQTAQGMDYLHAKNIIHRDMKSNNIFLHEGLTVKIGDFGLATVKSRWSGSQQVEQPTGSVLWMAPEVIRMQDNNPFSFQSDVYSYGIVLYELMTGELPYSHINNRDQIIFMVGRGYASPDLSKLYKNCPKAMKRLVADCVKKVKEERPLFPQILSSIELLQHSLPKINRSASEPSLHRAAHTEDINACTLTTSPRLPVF

hSBK1 = target: T17, hSBK1 (Homo sapiens, UniProt Q52WX2); assay: KINOMEscan; type: binding
T17 construct: purchased DiscoverX (KINOMEscan platform)
T17 sequence (Q52WX2 whole entry): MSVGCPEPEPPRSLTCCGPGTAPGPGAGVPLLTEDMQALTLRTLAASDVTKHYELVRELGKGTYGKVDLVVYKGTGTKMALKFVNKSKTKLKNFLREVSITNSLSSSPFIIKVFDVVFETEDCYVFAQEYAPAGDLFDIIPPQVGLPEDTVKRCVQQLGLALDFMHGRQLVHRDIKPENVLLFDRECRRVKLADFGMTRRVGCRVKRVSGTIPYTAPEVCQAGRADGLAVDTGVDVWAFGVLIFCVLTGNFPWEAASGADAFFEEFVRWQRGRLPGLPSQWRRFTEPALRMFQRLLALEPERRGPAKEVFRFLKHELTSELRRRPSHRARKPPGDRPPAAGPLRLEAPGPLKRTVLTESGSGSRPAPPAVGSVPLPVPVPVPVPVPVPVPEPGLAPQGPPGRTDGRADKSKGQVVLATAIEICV

hSIK2 = target: T18, hSIK2 (Homo sapiens, UniProt Q9H0K1); assay: KINOMEscan; type: binding
T18 construct: purchased DiscoverX (KINOMEscan platform)

hSTK16 = target: T19, hSTK16 (Homo sapiens, UniProt O75716); assay: KINOMEscan; type: binding
T19 construct: purchased DiscoverX (KINOMEscan platform)

hSTK39 = target: T20, hSTK39 (Homo sapiens, UniProt Q9UEW8); assay: KINOMEscan; type: binding
T20 construct: purchased DiscoverX (KINOMEscan platform)

hTIE2 = target: T21, hTIE2 (Homo sapiens, UniProt Q02763); assay: KINOMEscan; type: binding
T21 construct: purchased DiscoverX

hVDR = target: T22, hVDR (Homo sapiens, UniProt P11473); assay: Nuclear hormone receptor assay (Eurofins-CEREP); conditions: read-out: Relative IC50
T22 construct: Eurofins-CEREP

hADRα2A = target: T23, hADRα2A (Homo sapiens, UniProt P08913); assay: cAMP Agonist (Eurofins-CEREP); conditions: @ 10 μM
T23 sequence (P08913 1-465): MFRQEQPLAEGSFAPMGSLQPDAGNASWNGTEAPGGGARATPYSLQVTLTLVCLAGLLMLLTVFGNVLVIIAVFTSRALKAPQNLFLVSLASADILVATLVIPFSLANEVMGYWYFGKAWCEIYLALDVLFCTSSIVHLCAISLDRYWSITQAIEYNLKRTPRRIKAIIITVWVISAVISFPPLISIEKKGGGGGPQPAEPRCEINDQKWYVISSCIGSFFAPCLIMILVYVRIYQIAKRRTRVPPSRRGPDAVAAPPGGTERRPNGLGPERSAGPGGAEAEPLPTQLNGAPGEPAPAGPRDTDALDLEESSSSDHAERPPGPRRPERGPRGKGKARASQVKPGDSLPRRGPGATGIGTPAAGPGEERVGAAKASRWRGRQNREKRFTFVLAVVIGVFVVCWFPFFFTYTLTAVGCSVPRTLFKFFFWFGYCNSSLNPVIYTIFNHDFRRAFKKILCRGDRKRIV

hM2 = target: T24, hM2 (Homo sapiens, UniProt P08172); assay: β-arrestin Antagonist (Eurofins-CEREP); conditions: read-out: % Effect, Inhibition
T24 sequence (P08172 1-466): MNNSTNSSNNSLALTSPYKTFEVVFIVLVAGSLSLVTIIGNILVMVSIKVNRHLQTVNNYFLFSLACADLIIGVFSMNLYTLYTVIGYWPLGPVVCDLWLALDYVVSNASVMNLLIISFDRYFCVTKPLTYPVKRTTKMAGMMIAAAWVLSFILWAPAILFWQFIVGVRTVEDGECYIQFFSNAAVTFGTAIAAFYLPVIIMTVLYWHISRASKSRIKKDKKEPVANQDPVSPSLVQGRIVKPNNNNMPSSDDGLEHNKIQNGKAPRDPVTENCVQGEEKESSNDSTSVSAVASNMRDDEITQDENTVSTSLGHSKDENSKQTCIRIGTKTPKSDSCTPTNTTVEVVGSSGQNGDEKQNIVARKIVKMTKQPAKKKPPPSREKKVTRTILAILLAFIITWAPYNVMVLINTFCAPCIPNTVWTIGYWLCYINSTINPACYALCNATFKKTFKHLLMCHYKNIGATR

Q: How did the “inactive against off-target panels” value [1] turn out when `Cc1cn(CCN2CCN(c3ccccc3-c3cc(C#N)cc(C(=O)NCCCN4CCCC4)c3)CC2)c2ccccc12` [LLY-507, 3-cyano-5-{2-[4-[2-(3-methylindol-1-yl)ethyl]piperazin-1-yl]-phenyl}-N-[(3-pyrrolidin-1-yl)propyl]benzamide] was run?
A: > 20 µM

Q: And the IC50 (hABL1(F317I))?
A: > 20 µM

Q: And the IC50 (hARK5)?
A: > 20 µM

Q: And the IC50 (hCLK1)?
A: > 20 µM

Q: And the IC50 (hCSF1R)?
A: > 20 µM

Q: And the IC50 (hDAPK3)?
A: > 20 µM

Q: And the IC50 (hEPHB2)?
A: > 20 µM

Q: What about the IC50 (hEPHB3) of the same molecule?
A: > 20 µM

Q: And the IC50 (hFES)?
A: > 20 µM

Q: What about the IC50 (hHIPK2) of the same molecule?
A: > 20 µM

Q: What about the IC50 (hHIPK3) of the same molecule?
A: > 20 µM

Q: And the IC50 (hIRAK1)?
A: > 20 µM

Q: And the IC50 (hMARK3)?
A: > 20 µM

Q: What about the IC50 (hMERTK) of the same molecule?
A: > 20 µM

Q: And the IC50 (hMET(Y1235D))?
A: > 20 µM

Q: And the IC50 (hMKK7)?
A: > 20 µM

Q: And the IC50 (hRAF1)?
A: > 20 µM

Q: And the IC50 (hSBK1)?
A: > 20 µM

Q: What about the IC50 (hSIK2) of the same molecule?
A: > 20 µM

Q: What about the IC50 (hSTK16) of the same molecule?
A: > 20 µM

Q: What about the IC50 (hSTK39) of the same molecule?
A: > 20 µM

Q: What about the IC50 (hTIE2) of the same molecule?
A: > 20 µM

Q: What about the IC50 (hVDR) of the same molecule?
A: > 10 µM

Q: And the “% Effect, Stimulation” value (hADRα2A)?
A: 0.2%

Q: And the inhibition at 10 µM (hM2)?
A: 36.3%
